In patent US9351974B2, “Substituted pteridinones for the treatment of cancer” (OSI Pharmaceuticals, LLC, priority 2011, dated 2016):

molecular target: T1, His-tagged full-length RSK2 (RPS6KA3) (Homo sapiens, UniProt P51812); assay: RSK2 Omnia Assay for compound IC50 determination; assay type: biochemical; conditions: ATP 15 μM, n=2, read-out: Mean RSK2 Biochem IC50
T1 construct: His-tagged full-length RSK2 (RPS6KA3, Invitrogen PV3323); His; purchased Invitrogen PV3323
Outline: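 Continuous fluorescence assay (ex 360/em 485 nm) of SOX-peptide (Omnia ST Peptide 6, 5 μM) phosphorylation with ATP 15 μM (Km 16.3 μM). Enzyme was […], in pH 7.5 HEPES/MgCl2 buffer with 1% DMSO. IC50 came from 11-point threefold dilutions ([…]) by four-parameter fit of initial slopes, in duplicate; Ki by Cheng-Prusoff assuming competitive inhibition.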

T1 sequence (P51812 whole entry): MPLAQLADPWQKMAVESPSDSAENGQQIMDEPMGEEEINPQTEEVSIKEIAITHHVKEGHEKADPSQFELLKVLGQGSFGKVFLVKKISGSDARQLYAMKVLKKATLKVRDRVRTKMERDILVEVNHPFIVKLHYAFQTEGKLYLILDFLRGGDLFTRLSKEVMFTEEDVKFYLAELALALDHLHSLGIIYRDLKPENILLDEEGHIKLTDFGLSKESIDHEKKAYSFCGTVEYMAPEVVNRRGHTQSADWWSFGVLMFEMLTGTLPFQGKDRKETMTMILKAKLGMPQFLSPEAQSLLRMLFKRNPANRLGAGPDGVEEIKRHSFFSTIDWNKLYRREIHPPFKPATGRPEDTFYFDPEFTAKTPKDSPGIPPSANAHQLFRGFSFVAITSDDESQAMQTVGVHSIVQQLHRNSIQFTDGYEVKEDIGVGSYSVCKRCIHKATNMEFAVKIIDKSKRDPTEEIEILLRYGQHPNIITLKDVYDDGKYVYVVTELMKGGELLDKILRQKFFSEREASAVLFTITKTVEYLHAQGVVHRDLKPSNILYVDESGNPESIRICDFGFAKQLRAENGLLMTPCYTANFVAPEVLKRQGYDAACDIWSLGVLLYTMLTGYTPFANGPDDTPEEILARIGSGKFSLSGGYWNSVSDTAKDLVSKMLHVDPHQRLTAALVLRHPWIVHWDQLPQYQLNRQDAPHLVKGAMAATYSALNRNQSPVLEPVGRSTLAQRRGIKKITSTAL

IC50 [µM] | Structure (SMILES)
≤ 0.1 | N#Cc1cccc(N2C(=O)[C@@H](CO)N(C3CCCC3)c3nc(Nc4cc(F)c5[nH]ncc5c4)ncc32)c1 [Example 218, 3-[(7R)-8-cyclopentyl-2-[(7-fluoro-1H-indazol-5-yl)amino]-7-(hydroxymethyl)-6-oxo-7,8-dihydropteridin-5(6H)-yl]benzonitrile]
> 1 | CNS(=O)(=O)Cc1ccc(Nc2ncc3c(n2)N(CCC(C)C)C(C)C(=O)N3c2ccccc2)cc1 (stereo not shown) [Example 7, N-methyl-1-(4-{[7-methyl-8-(3-methylbutyl)-6-oxo-5-phenyl-5,6,7,8-tetrahydropteridin-2-yl]amino}phenyl)methanesulfonamide]
≤ 0.1 | CC1C(=O)N(c2ccccc2)c2cnc(Nc3ccc4[nH]ncc4c3)nc2N1C1CCCCC1 (stereo not shown) [Example 61, 8-cyclohexyl-2-(1H-indazol-5-ylamino)-7-methyl-5-phenyl-7,8-dihydropteridin-6(5H)-one]
≤ 0.1 | C[C@@H]1C(=O)N(c2ccc(N3CCN(C)CC3)c(C#N)c2)c2cnc(Nc3cc(F)c4[nH]ncc4c3)nc2N1C1CCCCC1 [compound 173, 5-[(7R)-8-cyclohexyl-2-[(7-fluoro-1H-indazol-5-yl)amino]-7-methyl-6-oxo-7,8-dihydropteridin-5(6H)-yl]-2-(4-methylpiperazin-1-yl)benzonitrile]
0.1 to 1 | C[C@H]1C(=O)N(c2ccccc2)c2cnc(Nc3ccc4[nH]ncc4c3)nc2N1C1CCCC1 [Example 67, (7S)-8-cyclopentyl-2-(1H-indazol-5-ylamino)-7-methyl-5-phenyl-7,8-dihydropteridin-6(5H)-one]
> 1 | C[C@@H]1C(=O)N(c2ccccc2)c2cnc(Nc3ccc4[nH]ncc4c3)nc2N1CCN(C)C [Example 73, (7R)-8-[2-(dimethylamino)ethyl]-2-(1H-indazol-5-ylamino)-7-methyl-5-phenyl-7,8-dihydropteridin-6(5H)-one]
≤ 0.1 | CCOc1ccc(N2C(=O)[C@@H](C)N(C3CCOCC3)c3nc(Nc4cc(F)c5[nH]c(=O)oc5c4)ncc32)cc1C#N [compound 204, 2-Ethoxy-5-[(7R)-2-[(4-fluoro-2-oxo-2,3-dihydro-1,3-benzoxazol-6-yl)amino]-7-methyl-6-oxo-8-(tetrahydro-2H-pyran-4-yl)-7,8-dihydropteridin-5(6H)-yl]benzonitrile]
0.1 to 1 | C[C@@H]1C(=O)N(c2cccc(C#N)c2)c2cnc(Nc3ccc4[nH]ncc4n3)nc2N1C1CCCCC1 [compound 167, 3-[(7R)-8-cyclohexyl-7-methyl-6-oxo-2-(1H-pyrazolo[4,3-b]pyridin-5-ylamino)-7,8-dihydropteridin-5(6H)-yl]benzonitrile]
≤ 0.1 | CC(C)Oc1ccc(N2C(=O)[C@@H](C)N([C@H]3CC[C@H](C)CC3)c3nc(Nc4ccc5[nH]c(=O)oc5c4)ncc32)cc1C#N [compound 249, 5-[(7R)-7-methyl-8-(trans-4-methylcyclohexyl)-6-oxo-2-[(2-oxo-2,3-dihydro-1,3-benzoxazol-6-yl)amino]-7,8-dihydropteridin-5(6H)-yl]-2-(propan-2-yloxy)benzonitrile]
≤ 0.1 | C[C@@H]1C(=O)N(c2ccc(C(F)(F)F)cc2)c2cnc(Nc3ccc4[nH]ncc4c3)nc2N1C1CCCCC1 [Example 35, (7R)-8-cyclohexyl-2-(1H-indazol-5-ylamino)-7-methyl-5-[4-(trifluoromethyl)phenyl]-7,8-dihydropteridin-6(5H)-one]
> 1 | C[C@@H]1C(=O)N(c2cccc(C#N)c2)c2cnc(Nc3ccc4[nH]c(=O)[nH]c4c3)nc2N1C1CCC(F)(F)CC1 [compound 265, 3-[(7R)-8-(4,4-difluorocyclohexyl)-7-methyl-6-oxo-2-[(2-oxo-2,3-dihydro-1H-benzimidazol-5-yl)amino]-7,8-dihydropteridin-5(6H)-yl]benzonitrile]
≤ 0.1 | CC[C@@H]1C(=O)N(c2cccc(F)c2)c2cnc(Nc3cc(F)c4[nH]ncc4c3)nc2N1C1CCCCC1 [compound 290, (7R)-8-cyclohexyl-7-ethyl-2-[(7-fluoro-1H-indazol-5-yl)amino]-5-(3-fluorophenyl)-7,8-dihydropteridin-6(5H)-one]
≤ 0.1 | C[C@@H]1C(=O)N(c2ccc(N3CCN(C)CC3)nc2)c2cnc(Nc3cc(F)c4[nH]ncc4c3)nc2N1[C@H]1CC[C@H](C)CC1 [compound 242, (7R)-2-[(7-fluoro-1H-indazol-5-yl)amino]-7-methyl-8-(trans-4-methylcyclohexyl)-5-[6-(4-methylpiperazin-1-yl)pyridin-3-yl]-7,8-dihydropteridin-6(5H)-one]
≤ 0.1 | COc1ccc(N2C(=O)[C@@H](C)N([C@H]3CC[C@H](C)CC3)c3nc(Nc4cc(F)c5[nH]ncc5c4)ncc32)cc1OC [compound 239, (7R)-5-(3,4-dimethoxyphenyl)-2-[(7-fluoro-1H-indazol-5-yl)amino]-7-methyl-8-(trans-4-methylcyclohexyl)-7,8-dihydropteridin-6(5H)-one]
≤ 0.1 | C[C@@H]1C(=O)N(c2cccc(C#N)c2)c2cnc(Nc3ccc4c(=O)[nH]oc4c3)nc2N1C1CCCCC1 [compound 166, 3-[(7R)-8-cyclohexyl-7-methyl-6-oxo-2-[(3-oxo-2,3-dihydro-1,2-benzoxazol-6-yl)amino]-7,8-dihydropteridin-5(6H)-yl]benzonitrile]
≤ 0.1 | C[C@@H]1C(=O)N(c2ccc3c(c2)OCO3)c2cnc(Nc3ccc4[nH]ncc4c3)nc2N1C1CCCCC1 [Example 39, (7R)-5-(1,3-benzodioxol-5-yl)-8-cyclohexyl-2-(1H-indazol-5-ylamino)-7-methyl-7,8-dihydropteridin-6(5H)-one]
≤ 0.1 | C[C@@H]1C(=O)N(c2cccc(C#N)c2)c2cnc(Nc3ccc4[nH]ncc4c3)nc2N1CC1CC(F)(F)C1 [Example 83, 3-[(7R)-8-[(3,3-difluorocyclobutyl)methyl]-2-(1H-indazol-5-ylamino)-7-methyl-6-oxo-7,8-dihydropteridin-5(6H)-yl]benzonitrile]
0.1 to 1 | C[C@@H]1C(=O)N(c2cccc(C#N)c2)c2cnc(Nc3cc4cn[nH]c4cn3)nc2N1C1CCC(F)(F)CC1 [compound 268, 3-[(7R)-8-(4,4-difluorocyclohexyl)-7-methyl-6-oxo-2-(1H-pyrazolo[3,4-c]pyridin-5-ylamino)-7,8-dihydropteridin-5(6H)-yl]benzonitrile]
0.1 to 1 | CC(C)CCN1c2cc(Nc3ccc4[nH]ncc4c3)ncc2N(c2ccccc2)C(=O)C1C (stereo not shown) [Example 310, 7-(1H-indazol-5-ylamino)-2-methyl-1-(3-methylbutyl)-4-phenyl-1,4-dihydropyrido[3,4-b]pyrazin-3(2H)-one]
≤ 0.1 | C[C@@H]1C(=O)N(c2ccn(C)c(=O)c2)c2cnc(Nc3cnc4[nH]ncc4c3)nc2N1C1CCCCC1 [compound 175, (7R)-8-cyclohexyl-7-methyl-5-(1-methyl-2-oxo-1,2-dihydropyridin-4-yl)-2-(1H-pyrazolo[3,4-b]pyridin-5-ylamino)-7,8-dihydropteridin-6(5H)-one]
≤ 0.1 | C[C@@H]1C(=O)N(c2csc(C(=O)O)c2)c2cnc(Nc3ccc4[nH]ncc4c3)nc2N1C1CCCCC1 [compound 124, 4-[(7R)-8-cyclohexyl-2-(1H-indazol-5-ylamino)-7-methyl-6-oxo-7,8-dihydropteridin-5(6H)-yl]thiophene-2-carboxylic acid]
≤ 0.1 | C[C@@H]1C(=O)N(c2cccc(C#N)c2)c2cnc(Nc3ccc4[nH]c(=O)oc4c3)nc2N1C1CCCCC1 [compound 149, 3-[(7R)-8-cyclohexyl-7-methyl-6-oxo-2-[(2-oxo-2,3-dihydro-1,3-benzoxazol-6-yl)amino]-7,8-dihydropteridin-(6H)-yl]benzonitrile]
0.1 to 1 | C[C@@H]1C(=O)N(c2cccc(C#N)c2)c2cnc(Nc3ccc(O)cn3)nc2N1C1CCCCC1 [compound 168, 3-[(7R)-8-cyclohexyl-2-[(5-hydroxypyridin-2-yl)amino]-7-methyl-6-oxo-7,8-dihydropteridin-5(6H)-yl]benzonitrile]
≤ 0.1 | C[C@@H]1C(=O)N(c2cccc(C#N)c2)c2cnc(Nc3ccc4[nH]ncc4c3)nc2N1C1CCOCC1 [compound 184, 3-[(7R)-2-(1H-indazol-5-ylamino)-7-methyl-6-oxo-8-(tetrahydro-2H-pyran-4-yl)-7,8-dihydropteridin-5(6H)-yl]benzonitrile]
0.1 to 1 | C[C@@H]1C(=O)N(c2cccc(C#N)c2)c2cnc(Nc3ccc(F)c4[nH]ncc34)nc2N1C1CCCCC1 [compound 107, 3-[(7R)-8-cyclohexyl-2-[(7-fluoro-1H-indazol-4-yl)amino]-7-methyl-6-oxo-7,8-dihydropteridin-5(6H)-yl]benzonitrile]
≤ 0.1 | C[C@@H]1C(=O)N(c2cccc(C#N)c2)c2cnc(Nc3cc(F)c4[nH]ncc4c3)nc2N1[C@H]1CC[C@H](C)CC1 [compound 237, 3-[(7R)-2-[(7-fluoro-1H-indazol-5-yl)amino]-7-methyl-8-(trans-4-methylcyclohexyl)-6-oxo-7,8-dihydropteridin-5(6H)-yl]benzonitrile]
≤ 0.1 | C[C@@H]1C(=O)N(c2ccccc2)c2cnc(Nc3ccc4[nH]ncc4c3)nc2N1CC1CCOCC1 [Example 74, (7R)-2-(1H-indazol-5-ylamino)-7-methyl-5-phenyl-8-(tetrahydro-2H-pyran-4-ylmethyl)-7,8-dihydropteridin-6(5H)-one]
≤ 0.1 | CSc1ccc(N2C(=O)[C@@H](C)N(C3CCCCC3)c3nc(Nc4ccc5[nH]ncc5c4)ncc32)cn1 [compound 98, (7R)-8-cyclohexyl-2-(1H-indazol-5-ylamino)-7-methyl-5-[6-(methylsulfanyl)pyridin-3-yl]-7,8-dihydropteridin-6(5H)-one]
